According to patent publication US12077503B2, “Substituted cyclic amides and their use as herbicides” (FMC CORPORATION, priority 2015, dated 2024):

Tests used:
Type in all cases: in vivo
[1] = test system: barnyardgrass (Echinochloa crus-galli); test: Test A postemergence; conditions: Echinochloa crus-galli, post-emergence, 240 h, 125 g ai/ha, postemergence, visual injury rating after approximately 10 d; read-out: Barnyardgrass plant response rating (0 to 100 scale, 0 no effect, 100 complete control)
In short: (§1)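 Greenhouse, ~10 d after spray; visual injury vs untreated controls, 0 = no effect, 100 = complete control. Preemergence: directed soil spray over planted seeds. Postemergence: plants 2–10 cm, 1–2 leaf stage. Loam/sand blend. Compound in non-phytotoxic solvent with surfactant.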

Kochia (Kochia scoparia) [2] = test: Test A postemergence; conditions: Bassia scoparia, post-emergence, 240 h, 125 g ai/ha, postemergence, visual injury rating after approximately 10 d; read-out: Kochia plant response rating (0 to 100 scale, 0 no effect, 100 complete control)
In short: as §1

[3] = test system: blackgrass (Alopecurus myosuroides); test: Test A postemergence; conditions: Alopecurus myosuroides, post-emergence, 240 h, 125 g ai/ha, postemergence, visual injury rating after approximately 10 d; read-out: Blackgrass plant response rating (0 to 100 scale, 0 no effect, 100 complete control)
In short: as §1

[4] = test system: pigweed (Amaranthus retroflexus); test: Test A postemergence; conditions: Amaranthus retroflexus, post-emergence, 240 h, 125 g ai/ha, postemergence, visual injury rating after approximately 10 d; read-out: Pigweed plant response rating (0 to 100 scale, 0 no effect, 100 complete control)
In short: as §1

[5] = test system: giant foxtail (Setaria faberii); test: Test A preemergence; conditions: Setaria faberi, pre-emergence, 240 h; for pest or weed control at 125 g/ha: 125 g ai/ha, preemergence, 0 to 100 scale where 0 is no effect and 100 is complete control, read-out: Foxtail, Giant plant response rating; for pest or weed control at 500 g/ha: 500 g ai/ha, Preemergence, visual injury vs untreated controls after approximately 10 d, read-out: Foxtail, Giant plant response rating (0 to 100 scale where 0 is no effect and 100 is complete control)
In short: as §1

[6] = test system: barnyardgrass (Echinochloa crus-galli); test: Test A preemergence; conditions: Echinochloa crus-galli, pre-emergence, 240 h; for pest or weed control at 125 g/ha: 125 g ai/ha, preemergence, 0 to 100 scale where 0 is no effect and 100 is complete control, read-out: Barnyardgrass plant response rating; for pest or weed control at 500 g/ha: 500 g ai/ha, Preemergence, visual injury vs untreated controls after approximately 10 d, read-out: Barnyardgrass plant response rating (0 to 100 scale where 0 is no effect and 100 is complete control)
In short: as §1

Kochia (Kochia scoparia) [7] = test: Test A preemergence; conditions: Bassia scoparia, pre-emergence, 240 h; for pest or weed control at 125 g/ha: 125 g ai/ha, preemergence, 0 to 100 scale where 0 is no effect and 100 is complete control, read-out: Kochia plant response rating; for pest or weed control at 500 g/ha: 500 g ai/ha, Preemergence, visual injury vs untreated controls after approximately 10 d, read-out: Kochia plant response rating (0 to 100 scale where 0 is no effect and 100 is complete control)
In short: as §1

[8] = test system: ryegrass, Italian (Italian ryegrass, Lolium multiflorum); test: Test A preemergence; conditions: Lolium multiflorum, pre-emergence, 240 h; for pest or weed control at 125 g/ha: 125 g ai/ha, preemergence, 0 to 100 scale where 0 is no effect and 100 is complete control, read-out: Ryegrass, Italian plant response rating; for pest or weed control at 500 g/ha: 500 g ai/ha, Preemergence, visual injury vs untreated controls after approximately 10 d, read-out: Ryegrass, Italian plant response rating (0 to 100 scale where 0 is no effect and 100 is complete control)
In short: as §1

[9] = test system: pigweed (Amaranthus retroflexus); test: Test A preemergence; conditions: Amaranthus retroflexus, pre-emergence, 240 h; for pest or weed control at 125 g/ha: 125 g ai/ha, preemergence, 0 to 100 scale where 0 is no effect and 100 is complete control, read-out: Pigweed plant response rating; for pest or weed control at 500 g/ha: 500 g ai/ha, Preemergence, visual injury vs untreated controls after approximately 10 d, read-out: Pigweed plant response rating (0 to 100 scale where 0 is no effect and 100 is complete control)
[10] = test system: ragweed (common ragweed, Ambrosia elatior); test: Test A preemergence; conditions: Ambrosia artemisiifolia, pre-emergence, 240 h; for pest or weed control at 125 g/ha: 125 g ai/ha, preemergence, 0 to 100 scale where 0 is no effect and 100 is complete control, read-out: Ragweed plant response rating; for pest or weed control at 500 g/ha: 500 g ai/ha, Preemergence, visual injury vs untreated controls after approximately 10 d, read-out: Ragweed plant response rating (0 to 100 scale where 0 is no effect and 100 is complete control)
In short: as §1

[11] = test system: barnyardgrass (Echinochloa crus-galli); test: Test B flooded paddy test; conditions: Echinochloa crus-galli, Flood, 250 g ai/ha; scale of 0 to 100 where 0 is no effect and 100 is complete control; read-out: Barnyardgrass plant response rating
In short: (§2)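 Evaluation by eye, against controls, occurred 13–15 d post-treatment in a greenhouse, using a 0 (no effect) to 100 (complete control) scale. Application was into the paddy water, 3 cm deep over the soil, on 2-leaf plants.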

rice (Oryra sativa) = test: Test B flooded paddy test; conditions: Oryza sativa, Flood, 250 g ai/ha; scale of 0 to 100 where 0 is no effect and 100 is complete control; read-out: Rice plant response rating
In short: as §2

[12] = test system: sedge, umbrella (small-flower umbrella sedge, Cyperus difformis); test: Test B flooded paddy test; conditions: Cyperus difformis, Flood, 250 g ai/ha; scale of 0 to 100 where 0 is no effect and 100 is complete control; read-out: Sedge, Umbrella plant response rating
In short: as §2

[13] = test system: ducksalad (Heteranthera limosa); test: Test B flooded paddy test; conditions: Heteranthera limosa, Flood, 250 g ai/ha; scale of 0 to 100 where 0 is no effect and 100 is complete control; read-out: Ducksalad plant response rating
In short: as §2

Row | SMILES | pest or weed control at 125 g/ha [1] | pest or weed control at 125 g/ha (Kochia (Kochia scoparia) [2]) | pest or weed control at 125 g/ha [3] | pest or weed control at 125 g/ha [4] | pest or weed control at 125 g/ha [5] | pest or weed control at 500 g/ha [5] | pest or weed control at 125 g/ha [6] | pest or weed control at 500 g/ha [6] | pest or weed control at 125 g/ha (Kochia (Kochia scoparia) [7]) | pest or weed control at 500 g/ha (Kochia (Kochia scoparia) [7]) | pest or weed control at 125 g/ha [8] | pest or weed control at 500 g/ha [8] | pest or weed control at 125 g/ha [9] | pest or weed control at 500 g/ha [9] | pest or weed control at 125 g/ha [10] | pest or weed control at 500 g/ha [10] | pest or weed control at 250 g/ha [11] | pest or weed control at 250 g/ha (rice (Oryra sativa)) | pest or weed control at 250 g/ha [12] | pest or weed control at 250 g/ha [13]
1 | CSc1ccccc1NC(=O)[C@H]1C(=O)N(C)C[C@@H]1c1cccc(COC(F)F)c1 [Compound 876] | 60% | 50% | 0% | 0% | 80% | 100% | 60% | 90% | 0% | 70% | 0% | 30% | 0% | 30% | 0% | 80% | 0% | 0% | 0% | 85%
2 | CN1C[C@H](c2cc(F)c(F)c(F)c2)[C@@H](C(=O)Nc2ccccc2F)C1=O [Compound 878] | 100% | 20% | 60% | 0% | 100% | 100% | 100% | 100% | 70% | 90% | 30% | 70% | 0% | 40% | 30% | 80% | 85% | 0% | 0% | 100%
3 | Cc1cc(C)cc([C@H]2CNC(=O)[C@@H]2C(=O)Nc2cccc(F)c2F)c1 [Compound 889] | 70% | 0% | 20% | 0% | 90% | 90% | 90% | 90% | 80% | 80% | 30% | 40% | 0% | 0% | 30% | 40% | 60% | 0% | 0% | 75%
